From patent US7332489B2, “Methods and compositions of novel triazine compounds” (Reddy US Therapeutics, Inc., priority 2003, dated 2008)
Read-outs that look alike come from different tables or passages of the source.

System: TNF-α induced IL-6
Test: TNF-α-induced IL-6 production determined by IL-6 ELISA
Assay type: cell-based
Conditions: for activity at 10 µM: Homo sapiens, 24 h
Procedure: Human aortic endothelial cells (HAEC, Clonetics) were cultured according to manufacturer in growth medium (Clonetics): basal medium containing human epidermal growth factor, hydrocortisone, vascular endothelial growth factor, heparin binding growth factor-B, long R3-insulin-like growth factor-1, ascorbic acid, gentamicin/amphotericin and 5% FBS. These cell were allowed to reach at least 90% confluency before subjected to experimental treatments. […] Tumor necrosis factor α was from R&D Systems.
All treatments, compound-added and controls were carried out in serum free media containing 0.2% albumin. Media from all conditions were collected and used for IL-6 ELISA.
IL-6 ELISA was carried out using human IL-6 DuoSet ELISA development kit as described by manufacturer (R&D Systems). Mouse anti-human Il-6 was used as the capture antibody (2 ug/ml) and biotinylated goat anti-human IL-6 (200 ng/ml) was used as the detection antibody. Culture media were incubated with capture antibody (in 96 well) for 2 h at room temperature. Wells were washed three times with wash buffer (0.05% tween-20 in phosphate buffered saline (PBS) pH 7.4) followed by incubation with detection antibody for 2 h at room temperature. Following three washes wells were incubated with Streptavidin-HRP for 20 min. Color development was read at 450 nm in a Microplate reader.

[1] = Table 5, first part, class = % of control IL6 production, read-out: Inhibition of TNF-induced IL6 production
[2] = Table 5, second part, column 1, class = % of control IL6 production, read-out: Inhibition of TNF-induced IL6, production
[3] = read-out: Inhibition of TNF-induced IL6 production

SMILES	activity at 10 µM [1] [%]	activity at 10 µM [2] [%]	also measured
CCN1CCCC1CNc1nc(NCCN2CCCCC2)nc(Nc2ccc(OC)c(F)c2)n1 (stereo not drawn) [Compound 71, N^2-[(1-ethyl-2-pyrrolidinyl)methyl]-N^4-(3-fluoro-4-methoxyphenyl)-N^6-[2-(1-piperidinyl)ethyl]-1,3,5-triazine-2,4,6-triamine]	0 to 25	25 to 50	–
CCN1CCCC1CNc1nc(Nc2ccc(OC)c(F)c2)nc(N2CCN(Cc3ccc4c(c3)OCO4)CC2)n1 (stereo not drawn) [Compound 72, N^6-[4-(1,3-benzodioxol-5-ylmethyl)-1-piperazinyl]-N^2-[(1-ethyl-2-pyrrolidinyl)methyl]-N^4-(3-fluoro-4-methoxyphenyl)-1,3,5-triazine-2,4-diamine]	0 to 25	25 to 50	–
CCN1CCCC1CNc1nc(Nc2ccc(OC)c(F)c2)nc(N2CCN(c3ccccn3)CC2)n1 (stereo not drawn) [Compound 73, N^2-[(1-ethyl-2-pyrrolidinyl)methyl]-N^4-(3-fluoro-4-methoxyphenyl)-N^6-[4-(2-pyridinyl)-1-piperazinyl]-1,3,5-triazine-2,4-diamine]	0 to 25	0 to 25	–
CCN1CCCC1CNc1nc(NCCCN2CCCC2=O)nc(Nc2ccc(OC)c(F)c2)n1 (stereo not drawn) [Compound 74, 1-[3-({4-{[(1-ethyl-2-pyrrolidinyl)methyl]amino}-6-[(3-fluoro-4-methoxyphenyl)amino]-1,3,5-triazin-2-yl}amino)propyl]-2-pyrrolidinone]	–	25 to 50	–
CCN1CCCC1CNc1nc(NCCCn2ccnc2)nc(Nc2ccc(OC)c(F)c2)n1 (stereo not drawn) [Compound 75, N^2-[(1-ethyl-2-pyrrolidinyl)methyl]-N^4-(3-fluoro-4-methoxyphenyl)-N^6-[3-(1H-imidazol-1-yl)propyl]-1,3,5-triazine-2,4,6-triamine]	25 to 50	25 to 50	–
CCNc1nc(Nc2ccc(OC)c(F)c2)nc(NC2CCCCCC2)n1 [Compound 76, N^2-cycloheptyl-N^4-ethyl-N^6-(3-fluoro-4-methoxyphenyl)-1,3,5-triazine-2,4,6-triamine]	0 to 25	–	–
COc1ccc(Nc2nc(NC3CCCCCC3)nc(NC(C)(C)C)n2)cc1F [Compound 77, N^2-(tert-butyl)-N^4-cycloheptyl-N^6-(3-fluoro-4-methoxyphenyl)-1,3,5-triazine-2,4,6-triamine]	0 to 25	–	–
COc1ccc(Nc2nc(NCc3ccccc3)nc(NC3CCCCCC3)n2)cc1F [Compound 78, N^2-benzyl-N^4-cycloheptyl-N^6-(3-fluoro-4-methoxyphenyl)-1,3,5-triazine-2,4,6-triamine]	25 to 50	–	–
COc1ccc(Nc2nc(NC3CCCCCC3)nc(N3CCCC3)n2)cc1F [Compound 82, N^2-cycloheptyl-N^4-(3-fluoro-4-methoxyphenyl)-6-(1-pyrrolidinyl)-1,3,5-triazine-2,4-diamine]	25 to 50	–	–
COc1ccc(Nc2nc(NC3CCCCCC3)nc(N3CCCCCC3)n2)cc1F [Compound 83, N^2-cycloheptyl-N^4-(3-fluoro-4-methoxyphenyl)-6-hexahydro-1H-azepin-1-yl-1,3,5-triazine-2,4-diamine]	0 to 25	–	–
COc1ccc(Nc2nc(NC3CCCCCC3)nc(N3CCCC4CCCCC43)n2)cc1F (stereo not drawn) [Compound 84, N^2-cycloheptyl-N^4-(3-fluoro-4-methoxyphenyl)-6-octahydro-1(2H)-quinolinyl-1,3,5-triazine-2,4-diamine]	25 to 50	–	–
COc1ccc(Nc2nc(NC3CCCCCC3)nc(NC3CCC(C)CC3)n2)cc1F (stereo not drawn) [Compound 85, N^2-cycloheptyl-N^4-(3-fluoro-4-methoxyphenyl)-N^6-(4-methylcyclohexyl)-1,3,5-triazine-2,4,6-triamine]	25 to 50	–	–
COC[C@@H]1CCCN1c1nc(Nc2ccc(OC)c(F)c2)nc(NC2CCCCCC2)n1 [Compound 86, N^2-cycloheptyl-N^4-(3-fluoro-4-methoxyphenyl)-6-[(2S)-2-(methoxymethyl)-1-pyrrolidinyl]-1,3,5-triazine-2,4-diamine]	0 to 25	–	–
COc1ccc(Nc2nc(NC3CCCCCC3)nc(N3CCN(C)CC3)n2)cc1F [Compound 87, N^2-cycloheptyl-N^4-(3-fluoro-4-methoxyphenyl)-6-(4-methyl-1-piperazinyl)-1,3,5-triazine-2,4-diamine]	–	0 to 25	–
COc1ccc(Nc2nc(NC3CCCCCC3)nc(N3CCN(C(C)=O)CC3)n2)cc1F [Compound 88, 6-(4-acetyl-1-piperazinyl)-N^2-cycloheptyl-N^4-(3-fluoro-4-methoxyphenyl)-1,3,5-triazine-2,4-diamine]	0 to 25	–	–
COc1ccc(Nc2nc(NCc3ccco3)nc(NC3CCCCCC3)n2)cc1F [Compound 91, N^2-cycloheptyl-N^4-(3-fluoro-4-methoxyphenyl)-N^6-(2-furanylmethyl)-1,3,5-triazine-2,4,6-triamine]	25 to 50	–	–
COc1ccc(Nc2nc(NC3CCCCCC3)nc(N3CCN(CC(=O)N4CCCC4)CC3)n2)cc1F [Compound 94, N^2-cycloheptyl-N^4-(3-fluoro-4-methoxyphenyl)-6-{4-[2-oxo-(1-pyrrolidinyl)ethyl]-1-piperazinyl}-1,3,5-triazine-2,4-diamine]	25 to 50	0 to 25	–
CCN1CCCC1CNc1nc(Nc2ccc(OC)c(F)c2)nc(NC2CCCCCC2)n1 (stereo not drawn) [Compound 95, N^2-cycloheptyl-N^4-[(1-ethyl-2-pyrrolidinyl)methyl]-N^6-(3-fluoro-4-methoxyphenyl)-1,3,5-triazine-2,4,6-triamine]	–	–	activity at 10 µM (read-out: Inhibition of TNF-induced IL6, production): 0 to 25%; activity at 10 µM [3]: 0 to 25%
COc1ccc(Nc2nc(NCCN3CCCCC3)nc(NC3CCCCCC3)n2)cc1F [Compound 96, N^2-cycloheptyl-N^4-(3-fluoro-4-methoxyphenyl)-N^6-[2-(1-piperidinyl)ethyl]-1,3,5-triazine-2,4,6-triamine]	0 to 25	–	–
COc1ccc(Nc2nc(NCCCN3CCCC3=O)nc(NC3CCCCCC3)n2)cc1F [Compound 99, 1-[3-({4-(cycloheptylamino)-6-[(3-fluoro-4-methoxyphenyl)amino]-1,3,5-triazin-2-yl}amino)propyl]-2-pyrrolidinone]	25 to 50	0 to 25	–
COc1ccc(Nc2nc(NCCCn3ccnc3)nc(NC3CCCCCC3)n2)cc1F [Compound 100, N^2-cycloheptyl-N^4-(3-fluoro-4-methoxyphenyl)-N^6-[3-(1H-imidazol-1-yl)propyl]-1,3,5-triazine-2,4,6-triamine]	–	0 to 25	–
COc1ccc(Nc2nc(NCCCCCO)nc(N(C)C3CCN(C)CC3)n2)cc1Cl [Compound 108, 5-{4-(3-Chloro-4-methoxy-phenylamino)-6-[methyl-(1-methyl-piperidin-4-yl)-amino]-[1,3,5]triazin-2-ylamino}-pentan-1-ol]	–	–	activity at 10 µM (read-out: % IL6 production compare to TNF stimulation of IL6 (100%), Compds tested @ 10 uM HAEC, IL6): 25%; activity at 10 µM [3]: 25 to 50%
COc1ccc(Nc2nc(Cl)nc(NC3CCCCCC3)n2)cc1F [Compound 127, 6-Chloro-N-cycloheheptyl-N′-(3-fluoro-4-methoxy-phenyl)-[1,3,5]triazine-2,4-diamine]	25 to 50	–	–
CCN1CCC[C@H]1CNc1nc(NCC2CCCCC2)nc(Nc2ccc(OC)c(F)c2)n1 [Compound 141, N^2-cyclohexylmethyl-N^4-((S)-1-ethyl-pyrrolidin-2-ylmethyl)-N^6-(3-fluoro-4-methoxyphenyl)-1,3,5-triazine-2,4,6-triamine]	0 to 25	–	% IL6 production compare to TNF stimulation of IL6 (100%), Compds tested @ 10 uM HAEC, IL6 (HAEC, 10 uM compound, TNF stimulation = 100%): 23.44%
